Data reported in patent US10414811B2, “Protease-resistant lipidated GLP-1 analogs” (MEDIMMUNE LIMITED, priority 2015, dated 2019).
Where two headings read alike, the source gives them in different places.

Legend:
Type in all cases: cell-based
[1] = molecular target: T1, human GLP-1 receptor (GLP-1R) (Homo sapiens, UniProt P43220); experiment: cAMP assay, human GLP-1R cells
T1 construct: expressed in transfected cells
In short: (§1)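 Peptide-stimulated cAMP measured by two-step HTRF after a 30 min room-temperature incubation with receptor-expressing cells (hGLP-1R, hGIPR at 1×10^5 cells/ml; hGCGR at 2×10^5 cells/ml). Duplicate dilutions; EC50 from 4-parameter logistic fit of % Delta F.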

[2] = molecular target: T2, human glucose-dependent insulinotropic peptide receptor (GIPR) (Homo sapiens, UniProt P48546); experiment: cAMP assay, human GIPR cells; conditions: cAMP assay
T2 construct: expressed in transfected cells
T2 sequence (P48546 22-466): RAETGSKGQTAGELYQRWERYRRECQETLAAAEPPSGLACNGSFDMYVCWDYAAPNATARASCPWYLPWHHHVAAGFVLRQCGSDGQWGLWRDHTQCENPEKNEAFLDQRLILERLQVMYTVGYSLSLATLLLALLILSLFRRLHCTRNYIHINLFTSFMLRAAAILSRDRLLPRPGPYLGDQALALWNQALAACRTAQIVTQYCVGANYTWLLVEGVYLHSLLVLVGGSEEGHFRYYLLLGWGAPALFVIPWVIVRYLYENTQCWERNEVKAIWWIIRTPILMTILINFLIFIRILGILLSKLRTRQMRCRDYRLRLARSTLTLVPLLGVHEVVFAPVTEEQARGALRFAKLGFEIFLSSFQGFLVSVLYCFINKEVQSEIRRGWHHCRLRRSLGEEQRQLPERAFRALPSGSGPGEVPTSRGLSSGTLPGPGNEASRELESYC
In short: as §1

[3] = molecular target: T3, human glucagon receptor (GCGR) (Homo sapiens, UniProt P47871); experiment: cAMP assay, human GCGR cells; conditions: cAMP assay
T3 construct: expressed in transfected cells
In short: as §1

[4] = cAMP assay, first determination (n1), read-out: Primary assay EC50 GLP-1R n1
[5] = cAMP assay, second determination (n2), read-out: Primary assay EC50 GLP-1R n2
[6] = mean of n1 and n2, read-out: Mean pM GLP-1R
[7] = first determination (n1), read-out: Primary assay EC50 GIP-R (n1)
[8] = second determination (n2), read-out: Primary assay EC50 GIP-R (n2)
[9] = first determination (n1), read-out: Primary assay EC50 Gluc-R (n1)
[10] = second determination (n2), read-out: Primary assay EC50 Gluc-R (n2)

T3 sequence (P47871 26-477): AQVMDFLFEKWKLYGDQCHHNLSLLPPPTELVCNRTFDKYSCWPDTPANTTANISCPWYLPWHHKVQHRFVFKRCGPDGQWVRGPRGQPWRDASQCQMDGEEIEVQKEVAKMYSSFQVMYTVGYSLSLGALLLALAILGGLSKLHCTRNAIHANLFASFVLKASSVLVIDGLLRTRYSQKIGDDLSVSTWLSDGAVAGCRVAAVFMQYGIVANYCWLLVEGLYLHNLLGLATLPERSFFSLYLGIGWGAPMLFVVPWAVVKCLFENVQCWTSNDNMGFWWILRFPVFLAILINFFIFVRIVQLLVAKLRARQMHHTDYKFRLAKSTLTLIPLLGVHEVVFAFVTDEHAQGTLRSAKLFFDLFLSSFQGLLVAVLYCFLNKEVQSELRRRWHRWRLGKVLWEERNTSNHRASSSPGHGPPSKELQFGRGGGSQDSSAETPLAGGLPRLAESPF
T1 sequence (P43220 24-463): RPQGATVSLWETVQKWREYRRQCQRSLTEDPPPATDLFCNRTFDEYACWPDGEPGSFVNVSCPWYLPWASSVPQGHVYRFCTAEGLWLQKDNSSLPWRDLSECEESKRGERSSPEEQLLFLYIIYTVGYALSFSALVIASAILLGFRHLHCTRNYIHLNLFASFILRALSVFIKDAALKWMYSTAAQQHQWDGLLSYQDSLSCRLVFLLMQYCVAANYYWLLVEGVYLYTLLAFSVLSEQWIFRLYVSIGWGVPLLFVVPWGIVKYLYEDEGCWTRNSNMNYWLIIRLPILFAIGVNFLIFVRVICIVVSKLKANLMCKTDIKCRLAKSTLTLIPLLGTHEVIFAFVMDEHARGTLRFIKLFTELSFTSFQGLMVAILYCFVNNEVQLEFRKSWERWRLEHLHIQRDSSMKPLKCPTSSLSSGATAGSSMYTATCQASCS

EC50 [1, 4] [pM] | EC50 [1, 5] [pM] | EC50 [1, 6] [pM] | EC50 [2, 7] [nM] | EC50 [2, 8] [nM] | EC50 [3, 9] [nM] | EC50 [3, 10] [nM] | SMILES | EC50 ([2]; Primary assay EC50 GIP-R (n1), first determination (n1)) [nM] | EC50 ([2]; read-out: Primary assay EC50 GIP-R (n2), second determination (n2)) [nM] | EC50 ([3]; Primary assay EC50 Gluc-R (n1), first determination (n1)) [nM] | EC50 ([3]; read-out: Primary assay EC50 Gluc-R (n2), second determination (n2)) [nM]
450 | 650 | 548 | ≥ 28 | ≥ 28 | ≥ 28 | ≥ 28 | CCCCCCCCCCCCCCCC(=O)N[C@@H](CCC(=O)NCCCC[C@H](NC(=O)[C@@H](NC(=O)[C@H](CC(=O)O)NC(=O)[C@H](CO)NC(=O)[C@@H](NC(=O)[C@](C)(Cc1ccccc1)NC(=O)[C@H](CO)NC(=O)CNC(=O)[C@H](CCC(=O)O)NC(=O)C(C)(C)NC(=O)[C@@H](N)Cc1c[nH]cn1)[C@@H](C)O)C(C)C)C(=O)N[C@@H](CO)C(=O)N[C@@](C)(Cc1ccccc1)C(=O)N[C@@H](CC(C)C)C(=O)N[C@@H](CCC(=O)O)C(=O)NCC(=O)N[C@@H](CCC(=O)O)C(=O)N[C@@H](C)C(=O)N[C@@H](C)C(=O)N[C@@](C)(CCCCN)C(=O)N[C@@H](CCC(=O)O)C(=O)N[C@@](C)(Cc1ccccc1)C(=O)N[C@H](C(=O)N[C@@H](C)C(=O)N[C@@](C)(Cc1ccccc1)C(=O)N[C@H](C(=O)N[C@H](C(=O)N[C@@](C)(CCCCN)C(=O)NCC(=O)NCC(N)=O)C(C)C)C(C)C)[C@@H](C)CC)C(=O)O [compound 89] |  |  |  | 
1800 | 570 | 1170 | ≥ 85 | ≥ 26 | ≥ 85 | ≥ 26 | CC[C@H](C)[C@H](NC(=O)[C@](C)(Cc1ccccc1)NC(=O)[C@H](CCC(=O)O)NC(=O)[C@H](CCCCNC(=O)COCCOCCNC(=O)COCCOCCNC(=O)CC[C@H](NC(=O)CCCCCCCCCCCCCCCCC(=O)O)C(=O)O)NC(=O)[C@H](C)NC(=O)[C@H](C)NC(=O)[C@H](CCC(=O)O)NC(=O)CNC(=O)[C@H](CCC(=O)O)NC(=O)[C@H](CC(C)C)NC(=O)[C@](C)(Cc1ccccc1)NC(=O)[C@H](CO)NC(=O)[C@H](CO)NC(=O)[C@@H](NC(=O)[C@H](CC(=O)O)NC(=O)[C@H](CO)NC(=O)[C@@H](NC(=O)[C@](C)(Cc1ccccc1)NC(=O)[C@H](CO)NC(=O)CNC(=O)[C@H](CCC(=O)O)NC(=O)C(C)(C)NC(=O)[C@@H](N)Cc1c[nH]cn1)[C@@H](C)O)C(C)C)C(=O)N[C@@H](C)C(=O)N[C@@](C)(Cc1ccccc1)C(=O)N[C@H](C(=O)N[C@H](C(=O)N[C@@H](CCCCN)C(=O)NCC(=O)NCC(N)=O)C(C)C)C(C)C [compound 40] |  |  |  | 

SMILES | EC50 [1, 4] [pM] | EC50 [1, 5] [pM] | EC50 [1, 6] [pM] | EC50 [2, 7] [nM] | EC50 [2, 8] [nM] | EC50 [3, 9] [nM] | EC50 [3, 10] [nM] | EC50 ([2]; Primary assay EC50 GIP-R (n1), first determination (n1)) [nM] | EC50 ([2]; read-out: Primary assay EC50 GIP-R (n2), second determination (n2)) [nM] | EC50 ([3]; Primary assay EC50 Gluc-R (n1), first determination (n1)) [nM] | EC50 ([3]; read-out: Primary assay EC50 Gluc-R (n2), second determination (n2)) [nM]
CC[C@H](C)[C@H](NC(=O)[C@](C)(Cc1ccccc1)NC(=O)[C@H](CCC(=O)O)NC(=O)[C@H](CCCCNC(=O)CCCCCNC(=O)CCCCCNC(=O)CCCCCNC(=O)CCCCCCCCCCCOc1ccc(C(=O)O)cc1)NC(=O)[C@H](C)NC(=O)[C@H](C)NC(=O)[C@H](CCC(=O)O)NC(=O)CNC(=O)[C@H](CCC(=O)O)NC(=O)[C@H](CC(C)C)NC(=O)[C@](C)(Cc1ccccc1)NC(=O)[C@H](CO)NC(=O)[C@](C)(CO)NC(=O)[C@@H](NC(=O)[C@H](CC(=O)O)NC(=O)[C@H](CO)NC(=O)[C@@H](NC(=O)[C@](C)(Cc1ccccc1)NC(=O)[C@H](CO)NC(=O)CNC(=O)[C@H](CCC(=O)O)NC(=O)C(C)(C)NC(=O)[C@@H](N)Cc1c[nH]cn1)[C@@H](C)O)C(C)C)C(=O)N[C@@H](C)C(=O)N[C@@](C)(Cc1ccccc1)C(=O)N[C@H](C(=O)N[C@H](C(=O)N[C@@](C)(CCCCN)C(=O)NCC(=O)NCC(N)=O)C(C)C)C(C)C [compound 142] | 12 | 7.9 | 10.1 |  |  |  |  | ≥ 26 | ≥ 26 | ≥ 26 | ≥ 26
